# Source: patent US12194003B2, “Compositions for treating acne and dermatological conditions” (priority 2020, dated 2025)
# Values joined by “and” are separate entries in the source; they are usually repeats but may differ in a detail not shown here. Equal values may be shown once. Read-outs that look alike come from different tables or passages of the source.
# What was measured:
# Primary human sebocytes = assay: Sebocyte ATP metabolism luminescence assay (Celltiter-Glo), percent luminescence reduction; assay type: cell-based; settings: for % Luminescence Reduction (Repeat 1, 2, 3): niacinamide 0 μM
# Protocol: The ability of various combinations of ingredients to increase ATP metabolism is evaluated via a sebocyte assay according to the following protocol. Immortalized human sebaceous gland cell lines (sebocytes) are a well-established model for studying acne. Primary human sebocytes Batch #13140680) were obtained from Celprogen™ and grown according to manufacturer's instructions. The cells were seeded at a concentration of 5000 cells per cm^2 in a tissue culture treated flask and incubated at 37° C. in a humidified incubator in the presence of 5% CO2 (all subsequent incubations were subject to these conditions). At 60-80% confluency, cells were passaged by detaching cells using TrypLE™ Express (Sigma). Cells were seeded in a black 96-well half area plate at a concentration of 5000 cells per well and allowed to equilibrate overnight at 37° C.
# […] Various concentrations of CBD (0 μM, 1 μM, 3 μM, 10 μM, 30 μM), niacinamide (0 μM, 4 μM, 10 μM, 20 μM, 40 μM), and urolithin A (0 μM, 3 μM, 10 μM, 30 μM, 100 μM) were evaluated in triplicate. The ability of each composition to increase ATP metabolism was determined using a luminescence assay (Celltiter-Glo™) according to manufacturer's instructions.
# Table 11 reports the percent luminescence reductions for cells treated with each composition compared to cells that are not administered a composition of the disclosure. This value is calculated using the formula: (1−(treatment luminescence/control luminescence))*100. The luminescence measurements in this assay are proportional to the number of metabolically active cells in a sample. Cells that are metabolically active (e.g., have functioning mitochondria) consume ATP and convert luciferin to oxyluciferin.
# sebocyte = assay: Sebocyte cell viability / cell death; assay type: cell-based, human; settings: L-ergothioneine 1 nM to 100 μM; FIG. 6
# Protocol: Sebocytes were incubated with compositions comprising CBD, niacinamide, urolithin A, or combination thereof. Various concentrations of CBD (0 μM, 1 μM, 3 μM, 10 μM, 30 μM), niacinamide (0 μM, 4 μM, 10 μM, 20 μM, 40 μM), and urolithin A (0 μM, 3 μM, 10 μM, 30 μM, 100 μM) were evaluated in triplicate. The ability of each composition to increase ATP metabolism was determined using a luminescence assay (Celltiter-Glo™) according to manufacturer's instructions.
# These assays also tested the ability of the antioxidant L-ergothioneine at concentrations ranging from 1 nM to 100 μM to affect skin cell viability and influence mitochondrial function.
structure (smiles),measurement,setting,value
"NC(=O)c1cccnc1 [Niacinamide, niacinamide]",Luminescence Reduction of Niacinamide Alone,Primary human sebocytes,3.0
same,Luminescence Reduction of Niacinamide Alone,Primary human sebocytes; Niacinamide 4.0 μM,3.0%
same,Luminescence Reduction of Niacinamide Alone,Primary human sebocytes; Niacinamide 10.0 μM,35.0%
same,Luminescence Reduction of Niacinamide Alone,Primary human sebocytes; Niacinamide 20.0 μM,52.0%
same,Luminescence Reduction of Niacinamide Alone,Primary human sebocytes; Niacinamide 40.0 μM,90.7%
same,Luminescence Reduction of Niacinamide Alone,Primary human sebocytes; niacinamide 4.0 μM,3.0
same,Luminescence Reduction of Niacinamide Alone,Primary human sebocytes; niacinamide 10.0 μM,35.0
same,Luminescence Reduction of Niacinamide Alone,Primary human sebocytes; niacinamide 20.0 μM,52.0
same,Luminescence Reduction of Niacinamide Alone,Primary human sebocytes; niacinamide 40.0 μM,90.7
"C=C(C)[C@@H]1CCC(C)=C[C@H]1c1c(O)cc(CCCCC)cc1O [CBD, cannabidiol]","% Luminescence Reduction (Repeat 1, 2, 3)","Primary human sebocytes; CBD 1 μM, urolithin A 0 μM",5% and 9%
C[N+](C)(C)[C@@H](Cc1c[nH]c(=S)[nH]1)C(=O)[O-] [L-ergothioneine],ATP metabolism,"Primary human sebocytes; L-ergothioneine 1 nM to 100 μM, FIG. 6",retain viability and ATP metabolism
same,cell viability,sebocyte,retain viability
"O=c1oc2cc(O)ccc2c2ccc(O)cc12 [Urolithin A, 3,8-dihydroxybenzo[c]chromen-6-one]",Luminescence Reduction of Urolithin A Alone,Primary human sebocytes; 30 µM,16.7%
same,"% Luminescence Reduction (Repeat 1, 2, 3)","Primary human sebocytes; CBD 0 μM, urolithin A 30 μM",15% and 17% and 18%
same,"% Luminescence Reduction (Repeat 1, 2, 3)","Primary human sebocytes; CBD 0 μM, urolithin A 100 μM",25% and 35% and 27%
same,Luminescence Reduction of Urolithin A Alone,Primary human sebocytes; Urolithin A 3.0 μM,18.7%
same,Luminescence Reduction of Urolithin A Alone,Primary human sebocytes; Urolithin A 10.0 μM,13.3%
same,Luminescence Reduction of Urolithin A Alone,Primary human sebocytes; Urolithin A 100.0 μM,29.0%
